In brackets after ≈: the same amount, converted by molar mass. Like-named read-outs stand apart in the source and are kept apart here.
Legend:
E. coli = assay: In vitro activity (MIC) against E. coli (Table 7); assay type: cell-based; conditions: Escherichia coli
Salmonella spp. GC 235 = assay: MIC, broth microdilution; conditions: Salmonella, SPP.GC235, Salmonella spp. GC 235
Salmonella spp. GC 566 = assay: MIC, broth microdilution; conditions: Salmonella, SPP.GC566, Salmonella spp. GC 566
S. cholerasius GC 1355 = assay: MIC, broth microdilution; conditions: S. cholerasius GC 1355
Staph. aureus Smith = assay: In vitro activity (MIC) against Staph. aureus Smith; assay type: cell-based; conditions: Staphylococcus aureus
E. coli #311 = assay: In vivo activity (oral, iv; ED50) against E. coli in mice; conditions: Escherichia coli
Source text: . […] Smith and E. Coli #311 in mammals.
Results of the tests (MIC, oral and IV) are list in Table 7.

[1] = single intravenous dose, mice, Table 7, read-out: ED50 SIV (E. coli)
[2] = single oral dose, mice, Table 7, read-out: ED50 SOD (E. coli)
[3] = single intravenous dose (SIV), read-out: ED50 E. coli #311 SIV
[4] = single oral dose (SOD), read-out: ED50 E. coli #311 SOD

Row | MIC (E. coli) [µg/mL] | MIC (Staph. aureus Smith; Table 6) [µg/mL] | SMILES | MIC (Salmonella spp. GC 235; Mouse Serum pre-incubation) [µg/mL] | MIC (Salmonella spp. GC 235; Water pre-incubation) [µg/mL] | MIC (Salmonella spp. GC 566; Mouse Serum pre-incubation) [µg/mL] | MIC (Salmonella spp. GC 566; Water pre-incubation) [µg/mL] | MIC (S. cholerasius GC 1355; Mouse Serum pre-incubation) [µg/mL] | MIC (S. cholerasius GC 1355; Water pre-incubation) [µg/mL] | MIC (Staph. aureus Smith; Table 8) [µg/mL] | ED50 (E. coli #311; [1]) [mg/kg] | ED50 (E. coli #311; [2]) [mg/kg] | ED50 (E. coli #311; [3]) [mg/kg] | ED50 (E. coli #311; [4]) [mg/kg]
1 | > 64 | 8 (≈ 10.6 µM) | CN(C)c1cc(NC(=O)CN(C(=O)OCOC(=O)CC(C)(C)C)C(C)(C)C)c(O)c2c1C[C@H]1C[C@H]3[C@H](N(C)C)C(O)=C(C(N)=O)C(=O)[C@@]3(O)C(O)=C1C2=O [Example 42, ({[(2-{[(5aR,6aS,7S,10aS)-9-(aminocarbonyl)-4,7-bis(dimethylamino)-1,8,10a,11-tetrahydroxy-10,12-dioxo-5,5a,6,6a,7,10,10a,12-octahydrotetracen-2-yl]amino}-2-oxoethyl)(tert-butyl)amino]carbonyl}oxy)methyl 3,3-dimethylbutanoate] | – | – | – | – | – | – | – | 3.1 | 30.3 | 3.1 | 30.3
2 | > 64 | 4 (≈ 5.28 µM) | CCC(C)(C)C(=O)OCOC(=O)N(CC(=O)Nc1cc(N(C)C)c2c(c1O)C(=O)C1=C(O)[C@]3(O)C(=O)C(C(N)=O)=C(O)[C@@H](N(C)C)[C@@H]3C[C@@H]1C2)C(C)(C)C [Example 44, ({[(2-{[(5aR,6aS,7S,10aS)-9-(aminocarbonyl)-4,7-bis(dimethylamino)-1,8,10a,11-tetrahydroxy-10,12-dioxo-5,5a,6,6a,7,10,10a,12-octahydrotetracen-2-yl]amino}-2-oxoethyl)(tert-butyl)amino]carbonyl}oxy)methyl 2,2-dimethylbutanoate] | – | – | – | – | – | – | – | 2.85 | 42.8 | 2.85 | 42.8
3 | 64 (≈ 87.7 µM) | 1 (≈ 1.37 µM) | CC(C)C(=O)OCOC(=O)N(CC(=O)Nc1cc(N(C)C)c2c(c1O)C(=O)C1=C(O)[C@]3(O)C(=O)C(C(N)=O)=C(O)[C@@H](N(C)C)[C@@H]3C[C@@H]1C2)C(C)(C)C [Example 45, ({[(2-{[(5aR,6aS,7S,10aS)-9-(aminocarbonyl)-4,7-bis(dimethylamino)-1,8,10a,11-tetrahydroxy-10,12-dioxo-5,5a,6,6a,7,10,10a,12-octahydrotetracen-2-yl]amino}-2-oxoethyl)(tert-butyl)amino]carbonyl}oxy)methyl 2-methylpropanoate] | – | – | – | – | – | – | – | 1.8 | 64 | 1.8 | 64
4 | 64 (≈ 89.4 µM) | 0.25 (≈ 0.349 µM) | CCC(=O)OCOC(=O)N(CC(=O)Nc1cc(N(C)C)c2c(c1O)C(=O)C1=C(O)[C@]3(O)C(=O)C(C(N)=O)=C(O)[C@@H](N(C)C)[C@@H]3C[C@@H]1C2)C(C)(C)C [Example 49, ({[(2-{[(5aR,6aS,7S,10aS)-9-(aminocarbonyl)-4,7-bis(dimethylamino)-1,8,10a,11-tetrahydroxy-10,12-dioxo-5,5a,6,6a,7,10,10a,12-octahydrotetracen-2-yl]amino}-2-oxoethyl)(tert-butyl)amino]carbonyl}oxy)methyl propionate] | – | – | – | – | – | – | – | 2.2 | 49 | 2.2 | 49
5 | 32 (≈ 43 µM) | 1 (≈ 1.34 µM) | CC(C)CC(=O)OCOC(=O)N(CC(=O)Nc1cc(N(C)C)c2c(c1O)C(=O)C1=C(O)[C@]3(O)C(=O)C(C(N)=O)=C(O)[C@@H](N(C)C)[C@@H]3C[C@@H]1C2)C(C)(C)C [Example 53, ({[(2-{[(5aR,6aS,7S,10aS)-9-(aminocarbonyl)-4,7-bis(dimethylamino)-1,8,10a,11-tetrahydroxy-10,12-dioxo-5,5a,6,6a,7,10,10a,12-octahydrotetracen-2-yl]amino}-2-oxoethyl)(tert-butyl)amino]carbonyl}oxy)methyl 3-methylbutanoate] | – | – | – | – | – | – | – | 2.25 | 46.9 | 2.25 | 46.9

The remaining lines, values behind:

Row | SMILES | MIC (E. coli) [µg/mL] | MIC (Staph. aureus Smith; Table 6) [µg/mL] | MIC (Salmonella spp. GC 235; Mouse Serum pre-incubation) [µg/mL] | MIC (Salmonella spp. GC 235; Water pre-incubation) [µg/mL] | MIC (Salmonella spp. GC 566; Mouse Serum pre-incubation) [µg/mL] | MIC (Salmonella spp. GC 566; Water pre-incubation) [µg/mL] | MIC (S. cholerasius GC 1355; Mouse Serum pre-incubation) [µg/mL] | MIC (S. cholerasius GC 1355; Water pre-incubation) [µg/mL] | MIC (Staph. aureus Smith; Table 8) [µg/mL] | ED50 (E. coli #311; [1]) [mg/kg] | ED50 (E. coli #311; [2]) [mg/kg] | ED50 (E. coli #311; [3]) [mg/kg] | ED50 (E. coli #311; [4]) [mg/kg]
6 | CCCN(CC(=O)Nc1cc(N(C)C)c2c(c1O)C(=O)C1=C(O)[C@]3(O)C(=O)C(C(N)=O)=C(O)[C@@H](N(C)C)[C@@H]3C[C@@H]1C2)C(=O)OCOC(=O)c1ccc(C)cc1 [Example 5, ({[(2-{[(5aR,6aS,7S,10aS)-9-(aminocarbonyl)-4,7-bis(dimethylamino)-1,8,10a,11-tetrahydroxy-10,12-dioxo-5,5a,6,6a,7,10,10a,12-octahydrotetracen-2-yl]amino}-2-oxoethyl)(propyl)amino]carbonyl}oxy)methyl 4-methylbenzoate] | > 64 | – | 2 (≈ 2.62 µM) | 32 (≈ 41.9 µM) | 4 (≈ 5.24 µM) | 64 (≈ 83.8 µM) | 16 (≈ 20.9 µM) | > 64 | 1 (≈ 1.31 µM) | 3.17 | > 64 | – | –
7 | CCCCCCC(=O)OCOC(=O)N(CC(=O)Nc1cc(N(C)C)c2c(c1O)C(=O)C1=C(O)[C@]3(O)C(=O)C(C(N)=O)=C(O)[C@@H](N(C)C)[C@@H]3C[C@@H]1C2)C(C)(C)C [Example 48, ({[(2-{[(5aR,6aS,7S,10aS)-9-(aminocarbonyl)-4,7-bis(dimethylamino)-1,8,10a,11-tetrahydroxy-10,12-dioxo-5,5a,6,6a,7,10,10a,12-octahydrotetracen-2-yl]amino}-2-oxoethyl)(tert-butyl)amino]carbonyl}oxy)methyl heptanoate] | > 64 | 0.25 (≈ 0.324 µM) | – | – | – | – | – | – | – | 1.7 | 29.8 | 1.7 | 29.8
8 | CN(C)c1cc(NC(=O)CN(C(=O)OCOC(=O)C2CCCCC2)C(C)(C)C)c(O)c2c1C[C@H]1C[C@H]3[C@H](N(C)C)C(O)=C(C(N)=O)C(=O)[C@@]3(O)C(O)=C1C2=O [Example 50, ({[(2-{[(5aR,6aS,7S,10aS)-9-(aminocarbonyl)-4,7-bis(dimethylamino)-1,8,10a,11-tetrahydroxy-10,12-dioxo-5,5a,6,6a,7,10,10a,12-octahydrotetracen-2-yl]amino}-2-oxoethyl)(tert-butyl)amino]carbonyl}oxy)methyl cyclohexanecarboxylate] | > 64 | 0.5 (≈ 0.649 µM) | – | – | – | – | – | – | – | 1.7 | 29.8 | 2.59 | > 64
9 | CN(C)c1cc(NC(=O)CN(C(=O)OCOC(=O)c2ccc(F)cc2)C(C)(C)C)c(O)c2c1C[C@H]1C[C@H]3[C@H](N(C)C)C(O)=C(C(N)=O)C(=O)[C@@]3(O)C(O)=C1C2=O [Example 52, ({[(2-{[(5aR,6aS,7S,10aS)-9-(aminocarbonyl)-4,7-bis(dimethylamino)-1,8,10a,11-tetrahydroxy-10,12-dioxo-5,5a,6,6a,7,10,10a,12-octahydrotetracen-2-yl]amino}-2-oxoethyl)(tert-butyl)amino]carbonyl}oxy)methyl 4-fluorobenzoate] | 8 (≈ 10.2 µM) | 2 (≈ 2.56 µM) | – | – | – | – | – | – | – | 3.78 | 43.7 | 3.78 | 43.7

Reference: patent US20070049564A1 (Wyeth, priority 2005, published 2007)
